1 compound from patent US20100016353A1, “BENZOIMIDAZOLE DERIVATIVES USEFUL AS ANTIPROLIFERATIVE AGENTS” (priority 2004, published 2010) can be followed below.

Data set [1] is described as follows: Metabolite identification in dog bile after administration of parent compound. Particulars: dog, after 5.0 mg/kg oral administration of parent. The class given is in vivo, beagle dogs.
In data set [2] the target is T1, microsomal epoxide hydrolase (Homo sapiens, UniProt P07099).
T1 sequence (P07099 1-455): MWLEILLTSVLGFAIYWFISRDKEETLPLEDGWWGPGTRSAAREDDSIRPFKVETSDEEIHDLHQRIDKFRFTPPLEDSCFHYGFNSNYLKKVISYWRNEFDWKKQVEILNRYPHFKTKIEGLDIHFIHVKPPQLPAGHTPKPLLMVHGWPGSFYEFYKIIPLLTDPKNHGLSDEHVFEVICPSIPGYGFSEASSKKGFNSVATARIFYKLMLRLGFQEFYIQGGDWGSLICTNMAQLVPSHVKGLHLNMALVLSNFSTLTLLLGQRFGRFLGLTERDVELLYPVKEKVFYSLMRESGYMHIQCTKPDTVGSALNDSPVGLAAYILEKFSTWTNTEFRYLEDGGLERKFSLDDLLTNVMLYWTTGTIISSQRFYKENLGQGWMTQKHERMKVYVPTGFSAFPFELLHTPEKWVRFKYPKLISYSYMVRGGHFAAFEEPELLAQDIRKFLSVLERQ
The data set can be described thus: Microsomal epoxide hydrolase inhibitor studies. It counts as in vitro ADME.

A short description of data set [3]: Metabolite identification, human liver cytosol incubation of parent compound. The class given is in vitro ADME. Particulars: parent incubated in human liver cytosol. As for the experimental part:
Cytosol: 1-{2-[5-(3-Methyl-oxetan-3-ylmethoxy)-benzoimidazol-1-yl]-quinolin-8-yl}-piperidin-4-ylamine (10 μM) was incubated and prepared for analysis. Cryopreserved human liver cytosol from Tissue Transformation Technologies Inc., Edison, N.J., (lot: HHC-0255, ˜20 mg/mL) and dog liver cytosol (˜35 mg/mL) were thawed on ice immediately before the incubation. The cytosol was diluted 10-fold in 100 mM potassium phosphate buffer (pH 7.4) before addition of 1-{2-[5-(3-Methyl-oxetan-3-ylmethoxy)-benzoimidazol-1-yl]-quinolin-8-yl}-piperidin-4-ylamine (final concentration […]) for a final incubation volume of 2 mL. Samples were incubated for one hour in a 37° C. water bath, then quenched with two volumes of acetonitrile. Samples were vortexed and subsequently centrifuged at 3000 rpm. Samples were prepared for analysis by centrifugation at 3000 rpm to pellet the precipitated proteins and by evaporating the supernatant to dryness. The samples were reconstituted in 300 μL 50/50 10 mM ammonium formate, pH 3.0/acetonitrile. A 10 μL reconstituted aliquot was analyzed by LC/MS/MS. 1-{2-[5-(2-Methoxy-ethoxy)-benzoimidazol-1-yl]-quinolin-8-yl}-piperidin-4-ylamine was incubated in human and dog liver cytosol under the same conditions as a positive control.
Separation of 1-{2-[5-(3-Methyl-oxetan-3-ylmethoxy)-benzoimidazol-1-yl]-quinolin-8-yl}-piperidin-4-ylamine and its metabolites in all samples was accomplished on a Zorbax SB-C18 reverse phase column (5 μm, 4.6×150 mm) at a flow rate of 1.0 mL/min. The mobile phase consisted of 10 mM ammonium formate, pH 3.0, (A) and acetonitrile (B). After injection of the sample, the column was washed with 10% B for 5 minutes followed by resolution of the metabolites with a linear gradient from 10% to 50% B over a 20-minute period. A 5-minute wash with 90% B followed by a 7-minute re-equilibration to 10% B was used between subsequent injections.
All Samples were analyzed by a Finnigan TSQ7000 mass spectrometer operated in positive ion mode with in-line ultraviolet detection (Shimadzu, λ=254 nm). Ionspray voltage and capillary temperature were maintained at 4.5 kV and 350 degrees Celsius, respectively. Product ion spectra were obtained with CID of 35 V; further fragmentation was obtained by conducting product ion scans with source CID of 10 V. Neutral loss scans of 176 (for glucuronide detection) were conducted with CID of 30 V.
The metabolites were initially identified by molecular ion (Q1) scans of the sample mixture. Potential metabolites were characterized by fragmentation of the metabolite molecular ions and comparison of the resulting fragmentation patterns with the 1-{2-[5-(3-Methyl-oxetan-3-ylmethoxy)-benzoimidazol-1-yl]-quinolin-8-yl}-piperidin-4-ylamine product mass spectrum.

For `CC1(COc2ccc3c(c2)ncn3-c2ccc3cccc(N4CCC(N)CC4)c3n2)COC1` [1-{2-[5-(3-Methyl-oxetan-3-ylmethoxy)-benzoimidazol-1-yl]-quinolin-8-yl}-piperidin-4-ylamine, reference compound], the Excretion in bile entry in data set [1] is recorded as “appears to be excreted in bile”. Also, the “Substrate for microsomal epoxide hydrolase” value in data set [2] is given as “not a substrate”. For the same compound, the “Metabolites in human liver cytosolic incubations” value in data set [3] is “No metabolites were observed”.
